Entries after “also recorded” stand apart in the source; their conditions may differ.

Results on 1 molecule are retold here after patent publication US8652787B2, “Use of ERBB4 as a prognostic and therapeutic marker for melanoma” (The United States of America, as represented by the …, priority 2008, dated 2014).

The test system of assay [1] is melanoma cells harboring mutant ERBB4 or WT ERBB4. In words: Flow cytometry (PI staining) of the sub-G1 apoptotic population after lapatinib. Format: cell-based, human. The note with it: 72 hours, 5 μM lapatinib, FACS. The procedure:
(§1) Cells were treated for 72 hours in the presence of increasing concentrations (0.01-30 μM) of lapatinib, and relative cell number was estimated by methylene blue protein staining and plotted as percent survival when compared to vehicle-treated control versus Log (lapatinib) nM (where 1 is 10 nM lapatinib). Fitted lines were generated using 4-parameter nonlinear regression via GraphPad Prism. […] The IC50 values for inhibition of cell growth by 72 hour treatment with lapatinib of a larger panel of lines harboring WT and mutant ERBB4 were analyzed using GraphPad Prism v.5 (n=3). (C) Immunoprecipitation and western blot analysis of ERBB4 autophosphorylation in cells treated with lapatinib. Cells were treated for 1 hour with lapatinib or vehicle alone as control. […] The activity of ERBB4, AKT and ERBB2 was determined by immunoblotting with phospho-specific antibodies. […] Lysates and immunoprecipitates were analyzed by western blotting using the indicated antibodies. […] (E) Quantitative assessment of data from 2 cell lines harboring WT ERBB4 and 3 cell lines harboring mutant ERBB4 that were performed similarly to (D). […] (G) Quantitation of FACS-sorted lapatinib-treated cells. The percent apoptotic cells were determined based on the sub-G1 population for vehicle-treated cells or lapatinib-treated cells.

The next assay concerns ERK1 and ERK2. The assay is described as follows: Western blot of ERK1/2 phosphorylation in lapatinib-treated melanoma cells. In kind it is cell-based, human. The note with it: 72 hours, 5 μM lapatinib; P-ERK1/ERK1, P-ERK2/ERK2. The method, then:
FIG. 14: Effect of lapatinib in ERK1/2 signaling pathways. […] Cells were treated for 72 hours with 5 μM lapatinib or vehicle as control. The activity of ERK1 and ERK2 was determined by immunoblotting with phospho-specific antibodies. Total ERK protein was also determined by immunoblotting. Shown are representative blots. (B) Quantitative assessment of data from one melanoma cell line harboring mutant ERBB4. The ratio of band intensities of P-ERK1/ERK1 or P-ERK2/ERK2 was analyzed for each melanoma cell line.
Transfected cells were washed 3× in PBS and lysed using 0.5 ml 1% NP-40 lysis buffer (1% NP-40, 50 mM Tris-HCl pH 7.5, 150 mM NaCl, complete protease inhibitor tablet, EDTA-free (Roche, Indianapolis, Ind.), 1 μM sodium orthovanadate, 1 mM sodium fluoride, and 0.1% β-mercaptoethanol) per T-75 flask for 20 minutes on ice. Lysed cells were scraped and transferred into a 1.5 mL microcentrifuge tube. Extracts were centrifuged for 10 minutes at 14,000 rpm at 4° C. […]
Scanned films from western blot analysis of SDS-PAGE were analyzed using ImageJ (NIH software). Individual bands were quantitated and plots were generated to determine the intensities in each band. The data was then exported to Microsoft Excel and analyzed further for phospho:total ratios of protein.

Another assay addresses ERBB2 (P-Y1248) (Homo sapiens, UniProt P04626). The assay is described as follows: Immunoprecipitation and western blot of ERBB2 phosphorylation in lapatinib-treated melanoma cells. The note with it: 1 hour, 5 μM lapatinib. Format: cell-based. The procedure: as §1
(In general: A western blot detects proteins with antibodies after separation by electrophoresis.)

Assay [2] has as its system melanoma cell lines harboring mutant ERBB4. The assay is described as follows: Growth inhibition of melanoma cell lines by lapatinib (72 h, methylene blue staining / SYBR Green I). In kind it is cell-based, human. The method, then:
as §1

The subject of a further assay is ERBB4 (P-Y1162). In words: Immunoprecipitation and western blot of ERBB4 autophosphorylation in lapatinib-treated melanoma cells. In kind it is cell-based, human. The procedure: as §1
Another assay has as its system AKT (P-S473). The assay is described as follows: Western blot of AKT phosphorylation in lapatinib-treated melanoma cells. Format: cell-based, human. The note with it: 1 hour, 5 μM lapatinib. The method, then:
as §1

Chain of ERBB2 (P-Y1248) (P04626 23-1255): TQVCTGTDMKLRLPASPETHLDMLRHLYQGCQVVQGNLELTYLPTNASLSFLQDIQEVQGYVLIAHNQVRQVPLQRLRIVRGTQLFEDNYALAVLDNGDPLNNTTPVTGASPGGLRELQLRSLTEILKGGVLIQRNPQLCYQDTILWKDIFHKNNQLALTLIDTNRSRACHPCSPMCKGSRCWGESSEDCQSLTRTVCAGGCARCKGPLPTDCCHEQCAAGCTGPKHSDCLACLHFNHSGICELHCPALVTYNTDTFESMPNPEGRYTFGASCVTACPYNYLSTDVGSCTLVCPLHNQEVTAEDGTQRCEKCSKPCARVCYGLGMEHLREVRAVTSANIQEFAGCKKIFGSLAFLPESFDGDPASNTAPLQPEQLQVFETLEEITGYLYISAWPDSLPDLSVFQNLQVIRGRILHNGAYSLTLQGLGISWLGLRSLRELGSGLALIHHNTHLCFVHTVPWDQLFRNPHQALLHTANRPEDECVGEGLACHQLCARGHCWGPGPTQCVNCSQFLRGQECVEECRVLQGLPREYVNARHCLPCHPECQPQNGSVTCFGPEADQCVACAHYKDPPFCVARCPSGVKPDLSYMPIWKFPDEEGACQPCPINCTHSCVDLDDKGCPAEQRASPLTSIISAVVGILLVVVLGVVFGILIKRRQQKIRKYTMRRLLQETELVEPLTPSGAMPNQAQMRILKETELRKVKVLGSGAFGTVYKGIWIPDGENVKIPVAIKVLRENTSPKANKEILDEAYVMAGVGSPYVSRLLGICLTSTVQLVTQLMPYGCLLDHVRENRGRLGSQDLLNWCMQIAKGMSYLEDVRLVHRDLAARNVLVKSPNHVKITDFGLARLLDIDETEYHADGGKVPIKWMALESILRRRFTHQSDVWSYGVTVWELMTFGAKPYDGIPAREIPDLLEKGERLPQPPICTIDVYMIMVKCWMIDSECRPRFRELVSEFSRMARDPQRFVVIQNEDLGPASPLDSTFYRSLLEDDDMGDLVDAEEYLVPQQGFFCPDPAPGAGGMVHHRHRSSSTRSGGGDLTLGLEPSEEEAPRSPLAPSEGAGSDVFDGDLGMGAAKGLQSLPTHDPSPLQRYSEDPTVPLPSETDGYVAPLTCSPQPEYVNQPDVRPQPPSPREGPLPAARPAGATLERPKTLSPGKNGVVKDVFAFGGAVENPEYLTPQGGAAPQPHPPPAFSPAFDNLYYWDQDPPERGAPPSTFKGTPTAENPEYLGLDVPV

As for `CS(=O)(=O)CCNCc1ccc(-c2ccc3ncnc(Nc4ccc(OCc5cccc(F)c5)c(Cl)c4)c3c2)o1` [lapatinib], the “apoptosis (sub-G1 population) of melanoma cells harboring mutant ERBB4 compared to WT ERBB4 lines” value is reported as “increased sub-G1 population” in assay [1] and “markedly increased apoptosis” in assay [1] (listed as Lapatinib). In the assay with ERK1 and ERK2, the “inhibition of ERK activation” value was “slightly inhibited; also recorded: increased lapatinib sensitivity with respect to ERK1 and ERK2 phosphorylation”. The “inhibition of ERBB2 in melanoma cell lines” value against ERBB2 (P-Y1248) is “No inhibition”. Further, the “reduction of cell proliferation / sensitivity to lapatinib, ERBB4 mutant versus WT ERBB4 melanoma cells” value in assay [2] (72 hours, 0.01-30 μM lapatinib, compared with cells containing endogenous WT ERBB4) is “increased sensitivity to lapatinib compared to WT ERBB4 cell lines; also recorded: reduced cell proliferation to a greater extent in cells containing endogenous ERBB4 mutations”. Moreover, the “fold greater sensitivity to lapatinib (from IC50) of melanoma cells harboring ERBB4 mutations than cells with WT receptor” value in assay [2] (IC50 for inhibition of cell growth, 72 hour treatment, n=3) is given as 10- to 250 fold. For the same molecule, the “inhibition of ERBB4 activation in cells harboring mutant ERBB4” value in the assay on ERBB4 (P-Y1162) (1 hour, 5 μM lapatinib, (P-Y1162)-ERBB4/ERBB4) was “specific inhibition of ERBB4 and AKT activation”. In addition, the “inhibition of ERBB4 receptor autophosphorylation” value with ERBB4 (P-Y1162) (cells treated for 1 hour with lapatinib, α-P-ERBB4 (Y1162)) is “inhibited receptor autophosphorylation in a dose-dependent manner”. In addition, the “inhibition of AKT activation in cells harboring mutant ERBB4” value in the assay with AKT (P-S473) was “specific inhibition of ERBB4 and AKT activation”.
